Laboratory results published in ChEMBL document CHEMBL1128043, “Synthesis of FK506-Cyclosporin hybrid macrocycles” (Bioorg Med Chem Lett, 1995).

Target: Peptidyl-prolyl cis-trans isomerase FKBP1A (Homo sapiens, UniProt P62942)
Assay: Binding affinity to FK506 binding protein 12 was determined

Peptidyl-prolyl cis-trans isomerase FKBP1A, sequence (P62942 whole entry): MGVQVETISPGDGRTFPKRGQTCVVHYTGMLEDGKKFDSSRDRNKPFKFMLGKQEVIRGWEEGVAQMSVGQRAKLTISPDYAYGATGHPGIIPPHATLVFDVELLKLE

Row | SMILES | Kd [nM]
1 | CCCC1C(=O)CC[C@@H](C)[C@@H](CCc2cccnc2)OC(=O)[C@@H]2CCCN(C2)C(=O)C(O)CC[S+]([O-])CC[C@@H](OC)C[C@@H](C)CC(=O)N1C (stereo not given in full) | > 1000
2 | C=CC[C@@H]1/C=C(\C)C[C@H](C)C[C@H](OC)[C@@H](O)[C@@H](OC)C[C@@H](C)c2ncoc2C(=O)N2CCCC[C@H]2C(=O)O[C@H](/C(C)=C/[C@@H]2CC[C@@H](O)[C@H](OC)C2)[C@H](C)C(O)CC1=O (stereo not given in full) | 344
3 | CCCC1C(=O)CC[C@@H](C)[C@@H](CCc2cccnc2)OC(=O)[C@@H]2CCCN(C2)C(=O)C(=O)CSCC[C@@H](OC)C[C@@H](C)CC(=O)N1C (stereo not given in full) | 644

The next compounds have a lower Kd than those just listed; values first:

Row | Kd [nM] | SMILES
4 | 320 | C=CC[C@@H]1/C=C(\C)C[C@H](C)C[C@H](OC)[C@@H](O)[C@@H](OC)C[C@@H](C)CC(=O)C(=O)N2CCCC[C@H]2C(=O)O[C@H](/C(C)=C/[C@@H]2CC[C@@H](O)[C@H](OC)C2)[C@H](C)[C@@H](O)CC1=O
5 | 90 | CCC(C)C1C(=O)CC[C@@H](C)[C@@H](CCc2cccnc2)OC(=O)[C@@H]2CCCN(C2)C(=O)C(=O)CCSCC[C@@H](OC)C[C@@H](C)CC(=O)N1C (stereo not given in full)
